The values below come from patent US20070010671A1, “Novel quinazoline derivatives and methods of treatment related to the use thereof” (priority 2003, published 2007).

The target of this assay is MCH receptor (Homo sapiens, UniProt Q99705). In words: High throughput functional screening FLIPR/FDSS6000: inhibition of MCH-evoked intracellular Ca2+ changes. Format: cell-based. Particulars: class by percent of control at 10^-7 M or IC50. The procedure, abridged: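 Constitutively active non-endogenous MCH-R cells; Fluo4-AM 4 μM, 2.5 mM probenecid, 1 hr, 37° C; cpd 3 min, 37° C; MCH 50 nM (antagonist mode); kinetic Ca2+ read Ex488/Em530, 290 s.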

`CN(C)c1nc(N[C@H]2CC[C@@H](CNC(=O)Nc3ccc(F)cc3F)CC2)nc2ccccc12` [compound 422, N-(2,4-difluorophenyl)-N′-[(cis-4-{[4-(dimethylamino)quinazolin-2-yl]amino}cyclohexyl)methyl]urea]: the class is 1 (Class 1: The value of percent of control at 10^−7 M was less than 40% or the value of IC50 was less than 50 nM.). As for `CN(C)c1nc(N[C@H]2CC[C@@H](CNC(=O)Nc3ccc(Cl)cc3Cl)CC2)nc2ccccc12` [compound 423, N-(2,4-dichlorophenyl)-N′-[(cis-4-{[4-(dimethylamino)quinazolin-2-yl]amino}cyclohexyl)methyl]urea], the class is given as 2 (Class 2: The value of percent of control at 10^−7 M was from 40% to 60% or the value of IC50 was from 50 nM to 200 nM.). As for `CN(C)c1nc(N[C@H]2CC[C@@H](CNC(=O)Nc3cc(Cl)cc(Cl)c3)CC2)nc2ccccc12` [compound 424, N-(3,5-dichlorophenyl)-N′-[(cis-4-{[4-(dimethylamino)quinazolin-2-yl]amino}cyclohexyl)methyl]urea], the figure is 1 (Class 1: The value of percent of control at 10^−7 M was less than 40% or the value of IC50 was less than 50 nM.). Consider `CN(C)c1nc(N[C@H]2CC[C@@H](CNC(=O)Nc3cccc(Cl)c3Cl)CC2)nc2ccccc12` [compound 425, N-(2,3-dichlorophenyl)-N′-[(cis-4-{[4-(dimethylamino)quinazolin-2-yl]amino}cyclohexyl)methyl]urea], for which the class is listed as 1 (Class 1: The value of percent of control at 10^−7 M was less than 40% or the value of IC50 was less than 50 nM.).

For `CN(C)c1nc(N[C@H]2CC[C@@H](CNC(=O)Nc3c(F)cccc3F)CC2)nc2ccccc12` [compound 426, N-(2,6-difluorophenyl)-N′-[(cis-4-{[4-(dimethylamino)quinazolin-2-yl]amino}cyclohexyl)methyl]urea], the class is listed as 2 (Class 2: The value of percent of control at 10^−7 M was from 40% to 60% or the value of IC50 was from 50 nM to 200 nM.). The figure for `CN(C)c1nc(N[C@H]2CC[C@@H](CNC(=O)Nc3cc(Cl)ccc3Cl)CC2)nc2ccccc12` [compound 427] is 3 (Class 3: The value of percent of control at 10^−7 M was more than 60% or the value of IC50 was more than 200 nM.); for `Cc1cccc(NC(=O)NC[C@H]2CC[C@@H](Nc3nc(N(C)C)c4ccccc4n3)CC2)c1C` [compound 428, N-[(cis-4-{[4-(dimethylamino)quinazolin-2-yl]amino}cyclohexyl)methyl]-N′-(2,3-dimethylphenyl)urea] it is 1 (Class 1: The value of percent of control at 10^−7 M was less than 40% or the value of IC50 was less than 50 nM.). As for `CCOC(=O)CNC(=O)NC[C@H]1CC[C@@H](Nc2nc(N(C)C)c3ccccc3n2)CC1` [compound 429], the figure is 3 (Class 3: The value of percent of control at 10^−7 M was more than 60% or the value of IC50 was more than 200 nM.); as for `CCOC(=O)c1cccc(NC(=O)NC[C@H]2CC[C@@H](Nc3nc(N(C)C)c4ccccc4n3)CC2)c1` [compound 430], 3 (Class 3: The value of percent of control at 10^−7 M was more than 60% or the value of IC50 was more than 200 nM.).

As to `CCOC(=O)c1ccc(NC(=O)NC[C@H]2CC[C@@H](Nc3nc(N(C)C)c4ccccc4n3)CC2)cc1` [compound 431], the class is on record as 3 (Class 3: The value of percent of control at 10^−7 M was more than 60% or the value of IC50 was more than 200 nM.). Regarding `CCc1ccc(NC(=O)NC[C@H]2CC[C@@H](Nc3nc(N(C)C)c4ccccc4n3)CC2)cc1` [compound 432, N-[(cis-4-{[4-(dimethylamino)quinazolin-2-yl]amino}cyclohexyl)methyl]-N′-(4-ethylphenyl)urea], the class is reported as 2 (Class 2: The value of percent of control at 10^−7 M was from 40% to 60% or the value of IC50 was from 50 nM to 200 nM.). Take `CCNC(=O)NC[C@H]1CC[C@@H](Nc2nc(N(C)C)c3ccccc3n2)CC1` [compound 433]: the class is recorded as 3 (Class 3: The value of percent of control at 10^−7 M was more than 60% or the value of IC50 was more than 200 nM.).

`CCc1cccc(C)c1NC(=O)NC[C@H]1CC[C@@H](Nc2nc(N(C)C)c3ccccc3n2)CC1` [compound 434, N-[(cis-4-{[4-(dimethylamino)quinazolin-2-yl]amino}cyclohexyl)methyl]-N′-(2-ethyl-6-methylphenyl)urea]: the class is reported as 1 (Class 1: The value of percent of control at 10^−7 M was less than 40% or the value of IC50 was less than 50 nM.). The figure for `CN(C)c1nc(N[C@H]2CC[C@@H](CNC(=O)Nc3ccc(F)c([N+](=O)[O-])c3)CC2)nc2ccccc12` [compound 436] is 3 (Class 3: The value of percent of control at 10^−7 M was more than 60% or the value of IC50 was more than 200 nM.). The figure for `CN(C)c1nc(N[C@H]2CC[C@@H](CNC(=O)Nc3ccc(F)cc3)CC2)nc2ccccc12` [compound 437, N-[(cis-4-{[4-(dimethylamino)quinazolin-2-yl]amino}cyclohexyl)methyl]-N′-(4-fluorophenyl)urea] is 1 (Class 1: The value of percent of control at 10^−7 M was less than 40% or the value of IC50 was less than 50 nM.); for `CN(C)c1nc(N[C@H]2CC[C@@H](CNC(=O)Nc3cccc(F)c3)CC2)nc2ccccc12` [compound 438, N-[(cis-4-{[4-(dimethylamino)quinazolin-2-yl]amino}cyclohexyl)methyl]-N′-(3-fluorophenyl)urea] it is 2 (Class 2: The value of percent of control at 10^−7 M was from 40% to 60% or the value of IC50 was from 50 nM to 200 nM.). The figure for `CN(C)c1nc(N[C@H]2CC[C@@H](CNC(=O)Nc3ccccc3F)CC2)nc2ccccc12` [compound 439, N-[(cis-4-{[4-(dimethylamino)quinazolin-2-yl]amino}cyclohexyl)methyl]-N′-(2-fluorophenyl)urea] is 2 (Class 2: The value of percent of control at 10^−7 M was from 40% to 60% or the value of IC50 was from 50 nM to 200 nM.). Take `CC(C)c1ccc(NC(=O)NC[C@H]2CC[C@@H](Nc3nc(N(C)C)c4ccccc4n3)CC2)cc1` [compound 440]: the class is recorded as 3 (Class 3: The value of percent of control at 10^−7 M was more than 60% or the value of IC50 was more than 200 nM.). As for `C=C(C)c1cccc(C(C)(C)NC(=O)NC[C@H]2CC[C@@H](Nc3nc(N(C)C)c4ccccc4n3)CC2)c1` [compound 441], the class is recorded as 2 (Class 2: The value of percent of control at 10^−7 M was from 40% to 60% or the value of IC50 was from 50 nM to 200 nM.). As for `CC(C)NC(=O)NC[C@H]1CC[C@@H](Nc2nc(N(C)C)c3ccccc3n2)CC1` [compound 443], the figure is 3 (Class 3: The value of percent of control at 10^−7 M was more than 60% or the value of IC50 was more than 200 nM.).

On to `COc1ccc(NC(=O)NC[C@H]2CC[C@@H](Nc3nc(N(C)C)c4ccccc4n3)CC2)cc1` [compound 444, N-[(cis-4-{[4-(dimethylamino)quinazolin-2-yl]amino}cyclohexyl)methyl]-N′-(4-methoxyphenyl)urea], for which the class was 2 (Class 2: The value of percent of control at 10^−7 M was from 40% to 60% or the value of IC50 was from 50 nM to 200 nM.).
